The term IC50 denotes the concentration needed to halve the response being measured. By IC90 is commonly meant the point of the concentration-response curve where the effect stands at 90%.

Where only a bound is given, the exact number is not on record here.

The values below come from ChEMBL document CHEMBL4483862, “Open-source discovery of chemical leads for next-generation chemoprotective antimalarials” (2018).

The subject of this assay is Plasmodium berghei. As to the kind of experiment: Luciferase/luciferin-expressing antifolate-resistant parasites were used to infect a culture of HepG2 cells that were pre-incubated with compounds. Infected hepatocytes emit light due to the luciferase reaction. Assay results are presented as the percent inhibition of light emission compared to control. […]. The note with it: sporozoite; for IC90: read-out: LUCIFERASE INFECTION ASSAY - IC90. The assay is classed as functional.

With `Cc1ccsc1/C=N/Nc1ncc(Cl)cc1Cl`, the IC90 is above 10 µM. The IC50 (FFLUC_HILL_SLOPE 11.7, FFLUC_R_SQUARED 0.18, PBLUC_HILL_SLOPE 22.2, PBLUC_R_SQUARED 0.267, read-out: LUCIFERASE INFECTION ASSAY - IC50) is 9.19 µM.

In the case of `COc1ccc(CCN2C(=O)CS/C2=N\c2ccc(C)cc2C)cc1OC`, the IC90 was above 8.58 µM. Moreover, the IC50 (FFLUC_HILL_SLOPE 11.8, FFLUC_R_SQUARED 0.0733, HEPG2TOX_HILL_SLOPE 1.46, HEPG2TOX_R_SQUARED 0.879, PBLUC_HILL_SLOPE 2.1, PBLUC_R_SQUARED 0.331, read-out: LUCIFERASE INFECTION ASSAY - IC50) was determined as 6.08 µM.

Consider `O=C1C=CC(=O)N1c1cc(Cl)cc(Cl)c1`, for which the IC90 is above 13.6 µM. The 50% inhibitory concentration (IC50) (FFLUC_HILL_SLOPE 11.6, FFLUC_R_SQUARED 0.448, PBLUC_HILL_SLOPE 9.84, PBLUC_R_SQUARED 0.0939, read-out: LUCIFERASE INFECTION ASSAY - IC50) was above 13.6 µM.

As for `c1coc(-c2cn3c(-c4ccsc4)cnc3cn2)c1`, the IC90 is above 12.3 µM. For the same compound, the IC50 (FFLUC_HILL_SLOPE 11.6, FFLUC_R_SQUARED 0.514, read-out: LUCIFERASE INFECTION ASSAY - IC50) is above 12.3 µM.

Consider `CCC(C)(C)c1ccc(OCC(=O)Nc2ccc(Cl)c(N)c2)c(C(C)(C)CC)c1`, for which the IC90 came out at 3.07 µM. Further, the IC50 (FFLUC_HILL_SLOPE 11.8, FFLUC_R_SQUARED 0.0263, PBLUC_HILL_SLOPE 15.2, PBLUC_R_SQUARED 0.794, read-out: LUCIFERASE INFECTION ASSAY - IC50) worked out at 2.66 µM.

Consider `Cc1ccc2c(c1)C(=O)C(=O)N2CCN1CCCCC1`, for which the IC90 is above 12.1 µM. Moreover, the IC50 (FFLUC_HILL_SLOPE 11.5, FFLUC_R_SQUARED 0.31, read-out: LUCIFERASE INFECTION ASSAY - IC50) is above 12.1 µM.

As to `CCCCCCN(C(=O)CC(NC(=O)c1ccccc1)c1ccccc1)c1nc2ccccc2s1` (stereo unspecified), the IC90 was found to be 9.24 µM. For the same compound, where the note is “FFLUC_HILL_SLOPE 11.5, FFLUC_R_SQUARED 0.371, PBLUC_HILL_SLOPE 30.2, PBLUC_R_SQUARED 0.437, read-out: LUCIFERASE INFECTION ASSAY - IC50”, the IC50 was 8.6 µM.

Turning to `O=C(/C(=C/c1ccc(F)cc1)c1ccc(-c2ccccc2)cc1)N1CCN(c2ccccc2Cl)CC1`, the IC90 was above 10 µM. The IC50 (FFLUC_HILL_SLOPE 11.6, FFLUC_R_SQUARED 0.516, HEPG2TOX_HILL_SLOPE 7.73, HEPG2TOX_R_SQUARED 0.736, read-out: LUCIFERASE INFECTION ASSAY - IC50) is above 10 µM.

Take `Cc1ccc2nc(-c3ccc(NC(=O)COC(=O)c4oc5ccccc5c4COC(C)C)cc3)sc2c1`: the 90% effect concentration (IC90) is above 10 µM. For the same compound, the IC50 (FFLUC_HILL_SLOPE 11.7, FFLUC_R_SQUARED 0.82, PBLUC_HILL_SLOPE 2.16, PBLUC_R_SQUARED 0.259, read-out: LUCIFERASE INFECTION ASSAY - IC50) is 9.03 µM.

With `CC(Sc1nccn1-c1cccc(F)c1)C(=O)Nc1ccc(N2CCOCC2)cc1` (stereo unspecified), the IC90 is above 10 µM. Moreover, the IC50 (FFLUC_HILL_SLOPE 11.8, FFLUC_R_SQUARED 0.0999, read-out: LUCIFERASE INFECTION ASSAY - IC50) was above 10 µM.

Regarding `CSc1ncccc1C(=O)Nc1nc(-c2ccc3ccccc3c2)cs1`, the IC90 was above 10 µM. Also, where the note is “FFLUC_HILL_SLOPE 11.5, FFLUC_R_SQUARED 0.449, read-out: LUCIFERASE INFECTION ASSAY - IC50”, the half-maximal inhibitory concentration (IC50) was above 10 µM.

For the compound `C=CCOc1ccccc1CN(c1ccc2c(c1)OCCO2)S(=O)(=O)c1cccs1`, the IC90 is above 10 µM. For the same compound, under “FFLUC_HILL_SLOPE 11.5, FFLUC_R_SQUARED 0.0724, read-out: LUCIFERASE INFECTION ASSAY - IC50”, the IC50 was above 10 µM.

For `Cc1cnc(NC(=O)Nc2cccc(C(F)(F)F)c2)s1`, the IC90 was 3.82 µM. Also, the IC50 (FFLUC_HILL_SLOPE 11.7, FFLUC_R_SQUARED 0.144, HEPG2TOX_HILL_SLOPE 3.17, HEPG2TOX_R_SQUARED 0.951, PBLUC_HILL_SLOPE 13.6, PBLUC_R_SQUARED 0.664, read-out: LUCIFERASE INFECTION ASSAY - IC50) amounted to 3.25 µM.

`CC(C)c1ccc(-c2csc(NC(=O)CCn3cnc([N+](=O)[O-])c3)n2)c(C(C)C)c1`: the IC90 was 8.21 µM. Besides, the IC50 (FFLUC_HILL_SLOPE 11.6, FFLUC_R_SQUARED 0.59, HEPG2TOX_HILL_SLOPE 11.1, HEPG2TOX_R_SQUARED 0.951, PBLUC_HILL_SLOPE 3.89, PBLUC_R_SQUARED 0.436, read-out: LUCIFERASE INFECTION ASSAY - IC50) was 4.67 µM.

For the compound `CCC(=O)c1cc(Br)ccc1OC(=O)Cc1coc2cc(C)c(C)cc12`, the IC90 worked out at 8.33 µM. Besides, the IC50 (FFLUC_HILL_SLOPE 11.7, FFLUC_R_SQUARED 0.164, HEPG2TOX_HILL_SLOPE 5.81, HEPG2TOX_R_SQUARED 0.234, PBLUC_HILL_SLOPE 5.23, PBLUC_R_SQUARED 0.568, read-out: LUCIFERASE INFECTION ASSAY - IC50) worked out at 5.48 µM.

Consider `Cc1nnc(S(=O)(=O)CC(=O)N2CCc3ccccc32)n1C`, for which the IC90 was above 10 µM. For the same compound, where the note is “FFLUC_HILL_SLOPE 11.6, FFLUC_R_SQUARED 0.688, read-out: LUCIFERASE INFECTION ASSAY - IC50”, the IC50 is above 10 µM.

Turning to `Cc1cc(C)c(C2C3=C(Nc4c2c(C)nn4-c2ccccn2)c2ccccc2C3=O)c(C)c1` (stereo unspecified), the IC90 was above 10 µM. Further, the IC50 (FFLUC_HILL_SLOPE 11.5, FFLUC_R_SQUARED 0.374, PBLUC_HILL_SLOPE 1.59, PBLUC_R_SQUARED 0.668, read-out: LUCIFERASE INFECTION ASSAY - IC50) amounted to 5.07 µM.

Turning to `CCOc1ccc(C(C)=O)cc1Cn1cnc2c(cnn2-c2ccccc2)c1=O`, the IC90 was above 10 µM. Moreover, the IC50 (FFLUC_HILL_SLOPE 11.6, FFLUC_R_SQUARED 0.166, HEPG2TOX_HILL_SLOPE 1.94, HEPG2TOX_R_SQUARED 0.895, read-out: LUCIFERASE INFECTION ASSAY - IC50) is above 10 µM.

Turning to `O=C(Cc1coc2ccc3ccccc3c12)Nc1cc(Cl)ccc1N1CCOCC1`, the IC90 is above 10 µM. Besides, the IC50 (FFLUC_HILL_SLOPE 11.6, FFLUC_R_SQUARED 0.426, read-out: LUCIFERASE INFECTION ASSAY - IC50) was above 10 µM.

`CC(C)(C)c1cc(-c2cc(C(F)(F)F)[nH]n2)c2c(c1)C(C)(C)CC2`: the IC90 was above 9.81 µM. Moreover, the IC50 (FFLUC_HILL_SLOPE 11.7, FFLUC_R_SQUARED 0.064, read-out: LUCIFERASE INFECTION ASSAY - IC50) is above 9.81 µM.

In the case of `Cc1ccc2nc(NC(=O)c3ccc(Cl)cc3Cl)c(C(=O)NC3CCCC3)n2c1`, the IC90 stood at 1.13 µM. For the same compound, the concentration for half-maximal inhibition (IC50) (FFLUC_HILL_SLOPE 11.5, FFLUC_R_SQUARED 0.0941, HEPG2TOX_HILL_SLOPE 0.896, HEPG2TOX_R_SQUARED 0.951, PBLUC_HILL_SLOPE 3.11, PBLUC_R_SQUARED 0.82, read-out: LUCIFERASE INFECTION ASSAY - IC50) worked out at 0.559 µM.

With `CSc1nnc(Sc2ncc([N+](=O)[O-])s2)s1`, the IC90 was above 11.3 µM. The IC50 (FFLUC_HILL_SLOPE 11.6, FFLUC_R_SQUARED 0.224, HEPG2TOX_HILL_SLOPE 8.93, HEPG2TOX_R_SQUARED 0.0924, PBLUC_HILL_SLOPE 12.6, PBLUC_R_SQUARED 0.322, read-out: LUCIFERASE INFECTION ASSAY - IC50) was 10 µM.

Turning to `CCOc1ccc(S(=O)(=O)Nc2cc(Sc3ccc(C)cc3)c(O)c3ccccc23)cc1`, the IC90 was above 10 µM. Also, the IC50 (FFLUC_HILL_SLOPE 11.6, FFLUC_R_SQUARED 0.0239, HEPG2TOX_HILL_SLOPE 1.78, HEPG2TOX_R_SQUARED 0.0588, PBLUC_HILL_SLOPE 15.2, PBLUC_R_SQUARED 0.324, read-out: LUCIFERASE INFECTION ASSAY - IC50) was found to be 9.98 µM.

Take `COc1ccc(Cl)cc1C(=O)NNC(=O)c1oc2ccccc2c1CSC1CCCCC1`: the IC90 is above 10 µM. Where the note is “FFLUC_HILL_SLOPE 11.7, FFLUC_R_SQUARED 0.493, read-out: LUCIFERASE INFECTION ASSAY - IC50”, the IC50 was above 10 µM.

On to `CCN(Cc1ccccc1)c1nc2ccccc2nc1NS(=O)(=O)c1cc([N+](=O)[O-])ccc1C`, for which the IC90 was above 10 µM. In addition, the IC50 (FFLUC_HILL_SLOPE 11.4, FFLUC_R_SQUARED 0.293, HEPG2TOX_HILL_SLOPE 1.92, HEPG2TOX_R_SQUARED 0.959, PBLUC_HILL_SLOPE 2.98, PBLUC_R_SQUARED 0.638, read-out: LUCIFERASE INFECTION ASSAY - IC50) was 7.87 µM.

`O=C(Nc1ncc(Cc2cccc(C(F)(F)F)c2)s1)c1ccc(-n2ccnc2)nc1`: the IC90 turned out to be 7.33 µM. For the same compound, the IC50 (FFLUC_HILL_SLOPE 11.4, FFLUC_R_SQUARED 0.309, HEPG2TOX_HILL_SLOPE 1.14, HEPG2TOX_R_SQUARED 0.957, PBLUC_HILL_SLOPE 2.81, PBLUC_R_SQUARED 0.544, read-out: LUCIFERASE INFECTION ASSAY - IC50) worked out at 3.35 µM.

As to `Cc1cc(C(=O)COC(=O)/C=C/c2cn(C)c(=O)n(C)c2=O)c(C)n1CCc1ccc(Cl)cc1`, the concentration for an effect of 90% (IC90) is above 10 µM. Moreover, the IC50 (FFLUC_HILL_SLOPE 11.7, FFLUC_R_SQUARED 0.825, read-out: LUCIFERASE INFECTION ASSAY - IC50) was above 10 µM.

`CCN(CC)c1nc(N)c2c(N)nc3c(c2c1C#N)CC(=O)N3c1cc(Cl)cc(Cl)c1`: the IC90 is above 10 µM. Further, where the note is “FFLUC_HILL_SLOPE 11.5, FFLUC_R_SQUARED 0.738, PBLUC_HILL_SLOPE 1.44, PBLUC_R_SQUARED 0.624, read-out: LUCIFERASE INFECTION ASSAY - IC50”, the IC50 came out at 4.18 µM.
